In data set [1] the test system is HeLa cells. Briefly: In vitro growth inhibition (resazurin, 72 h), HeLa. Conditions: Homo sapiens, concentration inhibiting tumor cell proliferation by 50%, mean ± SE. Type of data set: cell-based.
The test system of data set [2] is MDA-MB-231 cells. The data set can be described thus: In vitro growth inhibition (resazurin, 72 h), MDA-MB-231. In kind it is cell-based. Conditions: Homo sapiens, mean ± SE.
In data set [3] the test system is A549 cells. The data set can be described thus: In vitro growth inhibition (resazurin, 72 h), A549. Type of data set: cell-based. The settings on record: Homo sapiens, mean ± SE.
Data set [4] relates to HT-29 cells. The data set can be described thus: In vitro growth inhibition (resazurin, 72 h), HT-29. The settings on record: Homo sapiens, mean ± SE. In kind it is cell-based.
Data set [5] relates to MCF-7 cells. Briefly: In vitro growth inhibition (resazurin, 72 h), MCF-7. The settings on record: Homo sapiens, MCF7, mean ± SE. In kind it is cell-based.
Data set [6] concerns bovine brain tubulin. Briefly: Inhibition of tubulin polymerization (turbidimetric). Type of data set: biochemical. The settings on record: tubulin at 10 μM; 20 min incubation at 30 °C; read-out: Tubulin Assembly IC50 ± SD. How it is done: (§1) Bovine brain tubulin was purified as described previously. To evaluate the effects of the compounds on tubulin assembly in vitro [77], varying concentrations were preincubated with 10 μM tubulin in 0.8 M monosodium glutamate (pH 6.6) at 30 °C, and the reaction mixtures were then cooled to 0 °C. After addition of GTP, the mixtures were transferred to 0 °C cuvettes in Beckman Coulter (Brea, CA, USA) DU-7400/DU-7500 recording spectrophotometers equipped with electronic temperature controllers and were warmed to 30 °C, and the assembly of tubulin was observed turbidimetrically. […] Inhibition of colchicine binding to tubulin was measured as described before, except that the reaction mixtures contained 0.5 μM tubulin and 5 μM each of [^3H]colchicine and test compound. Only one DEAE-cellulose filter was used per sample, and filtration was via gravity.

For data set [7], the system named is acetylated histone H3 (Ac-H3K9) in HT-29 cells. Briefly: Western blot of acetylated histone H3 (Ac-H3K9) in HT-29 cells. Conditions: 10 µM, 6 h. Type of data set: cell-based, human. How it is done:
HT-29 cells were treated with selected compounds for 6 h at 10 µM, lysed, and then processed as previously described.
Antibodies directed against total histone H3 and its acetylated form (Ac-H3K9) were purchased from Cell Signaling Technology, Danvers, Massachusetts, while anti-vinculin antibody was purchased from Santa Cruz Biotechnology. Membranes were visualized using ECL select (GE Healthcare), and images were acquired using the iBright FL1500 Imaging System (Thermo Fisher Scientific, Waltham, MA, USA). Anti-vinculin (1:25,000, Santa Cruz Biotechnology, Dallas, TX, USA) was used as loading controls.

For data set [8], the system named is panel of five human cancer cell lines (HeLa, MDA-MB-231, A549, HT-29, MCF-7). Briefly: In vitro growth inhibition, range over the panel of five cancer cell lines. The settings on record: for IC50: read-out: IC50 values, range over the cancer cell line panel; for GI50: read-out: antiproliferative GI50 values, range over the five tumor lines.
Description: All the cell lines were purchased from the American Type Culture Collection (ATCC, Manassas, VA, USA). Drug stock solutions were prepared for each compound by dissolving them in DMSO at 10 mM.
Cancer cells were seeded in tissue treated, flat bottom, 384-well plates (Corning, Corning, NY, USA) according to their optimal density, in 27 μL of complete medium per well, using a Microlab STAR 96-CORE liquid handling system (Hamilton Bonaduz, Bonaduz, Switzerland) as described previously [75]. Each compound was tested in a 6-points 2-fold dose–response curve, and each dose was tested in duplicate within each plate, in three independent experiments. The final concentration of DMSO in the wells never exceeded 0.1%, which was the maximum concentration.
Only plates with acceptable Z-prime quality metrics (Z′ > 0.6) were further analyzed for the drug screening. Raw data were normalized according to the following equation: cell viability (%) = (x − POS)/(NEG − POS) × 100, where x is the relative fluorescence units (RFU) collected from each single well, NEG is the mean of intraplate negative controls (DMSO, corresponding to 100% cell viability), and POS is the mean of intraplate positive controls (Bortezomib 1 μΜ, equal to 0% cell viability).
The subject of data set [9] is tubulin (colchicine site). The data set can be described thus: Inhibition of [3H]colchicine binding to tubulin. More on the design: species or system bovine. The settings on record: tubulin 0.5 µM, [3H]colchicine 5 µM, tested compound 5 µM. How it is done:
as §1

For data set [10], the target named is T1, human recombinant HDAC6 (Homo sapiens, UniProt Q9UBN7).
T1 construct: purchased BPS Bioscience 50056
T1 sequence (Q9UBN7 1-1215): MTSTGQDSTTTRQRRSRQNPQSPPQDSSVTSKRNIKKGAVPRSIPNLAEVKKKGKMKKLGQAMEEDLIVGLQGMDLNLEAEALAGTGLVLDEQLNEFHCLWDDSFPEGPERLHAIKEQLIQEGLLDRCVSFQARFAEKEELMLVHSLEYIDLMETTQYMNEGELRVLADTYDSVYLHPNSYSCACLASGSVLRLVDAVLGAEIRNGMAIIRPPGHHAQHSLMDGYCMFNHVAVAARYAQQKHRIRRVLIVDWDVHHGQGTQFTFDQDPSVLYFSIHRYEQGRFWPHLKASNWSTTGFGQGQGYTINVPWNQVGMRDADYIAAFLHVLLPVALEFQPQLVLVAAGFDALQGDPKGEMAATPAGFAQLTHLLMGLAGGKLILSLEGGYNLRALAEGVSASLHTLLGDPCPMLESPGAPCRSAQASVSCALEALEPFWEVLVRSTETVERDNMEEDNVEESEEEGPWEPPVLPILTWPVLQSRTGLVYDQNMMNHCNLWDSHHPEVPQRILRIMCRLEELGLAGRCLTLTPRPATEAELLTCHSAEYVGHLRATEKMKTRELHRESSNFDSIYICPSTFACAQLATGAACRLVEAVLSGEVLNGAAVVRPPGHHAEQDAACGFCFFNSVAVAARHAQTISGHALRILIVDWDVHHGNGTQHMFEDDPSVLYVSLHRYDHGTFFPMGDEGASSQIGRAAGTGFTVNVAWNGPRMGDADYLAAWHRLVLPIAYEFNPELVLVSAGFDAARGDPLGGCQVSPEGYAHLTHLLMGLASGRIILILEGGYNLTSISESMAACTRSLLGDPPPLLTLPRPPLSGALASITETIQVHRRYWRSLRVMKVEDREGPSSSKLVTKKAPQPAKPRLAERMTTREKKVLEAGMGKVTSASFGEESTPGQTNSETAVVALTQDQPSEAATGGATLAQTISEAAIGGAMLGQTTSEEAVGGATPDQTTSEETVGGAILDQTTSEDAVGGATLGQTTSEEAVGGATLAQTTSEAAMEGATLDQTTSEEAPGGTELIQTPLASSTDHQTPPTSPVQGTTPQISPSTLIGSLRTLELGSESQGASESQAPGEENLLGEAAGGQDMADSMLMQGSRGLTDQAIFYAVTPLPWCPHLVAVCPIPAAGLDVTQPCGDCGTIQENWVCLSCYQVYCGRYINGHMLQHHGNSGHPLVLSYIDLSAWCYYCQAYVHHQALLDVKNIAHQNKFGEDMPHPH
The data set can be described thus: HDAC isoform inhibition, fluorogenic substrate, HDAC6. In kind it is biochemical. Conditions: mean ± SE, read-out: IC50 (µM) hHDAC6. How it is done: (§2) Further experiments were also carried out to evaluate the inhibitory activities of test compounds on selected HDAC isoforms. […] Following an incubation of 15 min at RT, fluorescence was measured in an EnSight multimodal plate reader (PerkinElmer, Boston, MA, USA) with an excitation wavelength of 360 nm and an emission wavelength of 450 nm.

Data set [11] concerns the target T2, human recombinant HDAC1 (Homo sapiens, UniProt Q13547).
T2 construct: purchased BPS Bioscience 50051
Briefly: HDAC isoform inhibition, fluorogenic substrate, HDAC1. In kind it is biochemical. Conditions: mean ± SE, read-out: IC50 (µM) hHDAC1. How it is done:
as §2

Data set [12] addresses T3, human recombinant HDAC8 (Homo sapiens, UniProt Q9BY41).
T3 construct: purchased BPS Bioscience 50008
T3 sequence (Q9BY41 1-377): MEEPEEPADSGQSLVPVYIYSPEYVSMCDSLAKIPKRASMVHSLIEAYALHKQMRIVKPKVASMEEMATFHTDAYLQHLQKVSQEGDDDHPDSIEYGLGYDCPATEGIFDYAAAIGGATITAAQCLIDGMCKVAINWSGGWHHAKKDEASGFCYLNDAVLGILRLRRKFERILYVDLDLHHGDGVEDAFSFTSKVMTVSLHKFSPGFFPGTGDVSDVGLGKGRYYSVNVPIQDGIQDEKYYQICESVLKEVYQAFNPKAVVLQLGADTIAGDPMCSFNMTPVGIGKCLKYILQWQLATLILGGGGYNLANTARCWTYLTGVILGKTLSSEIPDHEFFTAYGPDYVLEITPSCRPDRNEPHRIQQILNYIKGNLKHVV
The data set can be described thus: HDAC isoform inhibition, fluorogenic substrate, HDAC8. In kind it is biochemical. Conditions: mean ± SE, read-out: IC50 (µM) hHDAC8. How it is done: as §2

Data set [13] has as its target T4, human recombinant HDAC10 (Homo sapiens, UniProt Q969S8).
T4 construct: purchased BPS Bioscience 50060
T4 sequence (Q969S8 1-669): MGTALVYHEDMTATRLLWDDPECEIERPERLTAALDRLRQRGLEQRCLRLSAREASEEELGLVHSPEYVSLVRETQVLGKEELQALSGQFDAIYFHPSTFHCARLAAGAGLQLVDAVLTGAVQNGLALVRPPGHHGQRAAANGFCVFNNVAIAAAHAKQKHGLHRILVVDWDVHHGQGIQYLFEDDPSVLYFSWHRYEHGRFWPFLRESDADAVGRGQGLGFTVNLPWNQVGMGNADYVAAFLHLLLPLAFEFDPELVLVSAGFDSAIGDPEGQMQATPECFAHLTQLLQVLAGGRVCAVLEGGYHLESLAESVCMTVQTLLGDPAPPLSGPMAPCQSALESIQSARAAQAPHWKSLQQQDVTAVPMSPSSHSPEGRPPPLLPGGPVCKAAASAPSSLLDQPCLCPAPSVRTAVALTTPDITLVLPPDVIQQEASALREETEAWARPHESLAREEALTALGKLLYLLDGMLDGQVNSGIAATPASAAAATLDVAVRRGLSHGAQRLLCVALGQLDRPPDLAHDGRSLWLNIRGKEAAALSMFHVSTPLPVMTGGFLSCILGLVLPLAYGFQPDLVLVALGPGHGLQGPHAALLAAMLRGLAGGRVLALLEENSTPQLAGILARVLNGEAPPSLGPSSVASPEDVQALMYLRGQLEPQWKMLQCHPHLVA
Briefly: HDAC isoform inhibition, fluorogenic substrate, HDAC10. The settings on record: mean ± SE, read-out: IC50 (µM) hHDAC10. In kind it is biochemical. Here is the method:
as §2

Each structure is given as a SMILES string.

T2 sequence (Q13547 whole entry): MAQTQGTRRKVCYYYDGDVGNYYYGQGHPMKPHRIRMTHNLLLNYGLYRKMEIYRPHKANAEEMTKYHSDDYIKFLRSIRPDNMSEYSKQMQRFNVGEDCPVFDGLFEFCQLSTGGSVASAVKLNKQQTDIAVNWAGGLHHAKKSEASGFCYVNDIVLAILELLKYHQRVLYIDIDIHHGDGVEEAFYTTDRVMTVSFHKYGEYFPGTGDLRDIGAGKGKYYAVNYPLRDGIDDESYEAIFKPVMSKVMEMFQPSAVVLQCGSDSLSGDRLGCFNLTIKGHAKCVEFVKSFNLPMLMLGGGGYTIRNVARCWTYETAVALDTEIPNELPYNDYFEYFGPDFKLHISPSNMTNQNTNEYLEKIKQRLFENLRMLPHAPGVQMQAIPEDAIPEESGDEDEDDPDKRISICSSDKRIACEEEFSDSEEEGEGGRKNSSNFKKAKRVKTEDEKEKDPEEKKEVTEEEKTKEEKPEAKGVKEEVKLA

Regarding `COc1ccc2c(C)c(C(=O)c3cc(OC)c(OC)c(OC)c3)oc2c1` [TR187, 2-(3′,4′,5′-trimethoxybenzoyl)-3-methyl-6-methoxy benzofuran, reference compound], the half-inhibitory concentration (IC50) in [1] was 8.5 ± 0.11 nM; in data set [2], 3.1 ± 0.01 nM; in [3], 24 ± 0.44 nM; in data set [4] it was 35.2 ± 0.82 nM; in data set [5], 72 ± 4 nM; in [6], 620 nM. Also, in [8], the IC50 is 3 to 72 nM. For the same molecule, the “acetylated histone H3 (Ac-H3K9) level, Western blot” value in data set [7] is given as “does not show any inhibitory activity towards HDAC even at the cellular level”.
Consider `COc1cc(OC)cc(C(=O)c2oc3cc(OC)c(/C=C/C(=O)NO)cc3c2C)c1` [Compound 6c, (E)-3-(2-(3,5-Dimethoxybenzoyl)-6-methoxy-3-methylbenzofuran-5-yl)-N-hydroxyacrylamide], for which the melting point fell in the range of 170 to 172 °C. The molecule further gave an IC50 in data set [1] of 4 ± 0.01 nM. Moreover, it took 26.9 ± 1.74 nM to reach half-maximal inhibition in data set [2] (IC50). The same molecule registered an IC50 in data set [3] of 43.9 ± 0.55 nM. In data set [4], this molecule returned an IC50 of 29 ± 0.01 nM. Moreover, in data set [5], half-maximal inhibition (IC50) required 19 ± 1 nM. In addition, in [6], the IC50 was determined as 420 ± 70 nM. For the same molecule, the “Colchicine Binding % Inhibition ± SD” value in data set [9] came to 81 ± 4%. Besides, the IC50 in data set [10] came out at 12.5 ± 0.8 µM. Besides, in data set [11], the IC50 was > 30 µM. Also, the IC50 in [12] is > 30 µM. The IC50 in [13] was > 30 µM. In data set [8], the GI50 fell in the range of 4 to 44 nM.
Molecule `COc1cc2oc(C(=O)c3cc(OC)c(OC)c(OC)c3)c(C)c2cc1C#CC(=O)NO` [Compound 11a, N-Hydroxy-3-[6-methoxy-3-methyl-2-(3,4,5-trimethoxybenzoyl)-1-benzofuran-5-yl] prop-2-ynamide] yielded a melting point of 268 to 270 °C. The molecule further gave an IC50 in data set [1] of 0.4 ± 0.04 nM. In data set [2], this molecule showed an IC50 of 16.1 ± 0.01 nM. In [3], this molecule yielded an IC50 of 18.7 ± 0.72 nM. Further, the IC50 in [4] amounted to 6.6 ± 0.96 nM. The IC50 in data set [5] is 9.5 ± 0.7 nM. Also, in [6], the 50% inhibitory concentration (IC50) turned out to be 490 ± 100 nM. For the same molecule, the “Colchicine Binding % Inhibition ± SD” value in [9] was determined as 69 ± 0.1%. The IC50 in data set [10] is > 30 µM. Moreover, in data set [11], the IC50 is 14.1 ± 1 µM. Further, the IC50 in data set [12] was > 30 µM. The IC50 in data set [13] is > 30 µM. Further, in data set [8], the IC50 lay in the range of 0.4 to 19 nM.
`COc1cccc(C(=O)c2oc3cc(OC)c(/C=C/C(=O)NO)cc3c2C)c1` [Compound 6e, (E)-N-Hydroxy-3-(6-methoxy-2-(3-methoxybenzoyl)-3-methylbenzofuran-5-yl)acrylamide]: the melting point is 100 to 102 °C. The molecule also displayed an IC50 in data set [1] of 6 ± 0.05 nM. For the same molecule, the IC50 in [2] amounted to 44.7 ± 3.12 nM. The molecule further displayed an IC50 in [3] of 54.2 ± 2.03 nM. Also, half-maximal inhibition in data set [4] (IC50) required 7.9 ± 0.02 nM. Besides, in data set [5], inhibition was half-maximal at 33 ± 6 nM (IC50). Also, the IC50 in data set [6] stood at 1100 ± 100 nM. Also, in [9], the “Colchicine Binding % Inhibition ± SD” value is 86 ± 1%. The IC50 in data set [10] came to 17.1 ± 1.2 µM. For the same molecule, the IC50 in [11] stood at 13.4 ± 0.9 µM. The IC50 in data set [12] is > 30 µM. For the same molecule, the IC50 in [13] is > 30 µM.
Regarding `COc1cc2oc(C(=O)c3cc(OC)c(OC)c(OC)c3)c(C)c2cc1/C=C/C(=O)NO` [Compound 6a, (E)-N-Hydroxy-3-(6-methoxy-3-methyl-2-(3,4,5-trimethoxybenzoyl)benzofuran-5-yl)acrylamide], the IC50 in [1] is 5.2 ± 0.03 nM; in [2], 5 ± 0.04 nM; in data set [3] it was 23.5 ± 0.24 nM; in data set [4], 7.5 ± 0.11 nM; in [5] it was 7 ± 0.2 nM; in data set [12] it was > 30 µM. Besides, in data set [8], the IC50 lay in the range of 5 to 23 nM. Besides, in data set [8], the GI50 lay in the range of 5 to 23 nM.
